Calls of active or inactive are those of the source. No cut-off for these calls is given here.
Assays:
Acetylcholinesterase [1] = target: T1, Acetylcholinesterase (Homo sapiens, UniProt P22303); assay: Inhibition of AChE (unknown origin) at 10 uM using acetylthiocholine iodide as substrate preincubated for 10 mins followed by substrate addition measured after 10 mins by Ellman's method
Acetylcholinesterase [2] = target: T1, Acetylcholinesterase; assay: Inhibition of AChE (unknown origin) using acetylthiocholine iodide as substrate preincubated for 10 mins followed by substrate addition measured after 10 mins by Ellman's method

T1 sequence (P22303 whole entry): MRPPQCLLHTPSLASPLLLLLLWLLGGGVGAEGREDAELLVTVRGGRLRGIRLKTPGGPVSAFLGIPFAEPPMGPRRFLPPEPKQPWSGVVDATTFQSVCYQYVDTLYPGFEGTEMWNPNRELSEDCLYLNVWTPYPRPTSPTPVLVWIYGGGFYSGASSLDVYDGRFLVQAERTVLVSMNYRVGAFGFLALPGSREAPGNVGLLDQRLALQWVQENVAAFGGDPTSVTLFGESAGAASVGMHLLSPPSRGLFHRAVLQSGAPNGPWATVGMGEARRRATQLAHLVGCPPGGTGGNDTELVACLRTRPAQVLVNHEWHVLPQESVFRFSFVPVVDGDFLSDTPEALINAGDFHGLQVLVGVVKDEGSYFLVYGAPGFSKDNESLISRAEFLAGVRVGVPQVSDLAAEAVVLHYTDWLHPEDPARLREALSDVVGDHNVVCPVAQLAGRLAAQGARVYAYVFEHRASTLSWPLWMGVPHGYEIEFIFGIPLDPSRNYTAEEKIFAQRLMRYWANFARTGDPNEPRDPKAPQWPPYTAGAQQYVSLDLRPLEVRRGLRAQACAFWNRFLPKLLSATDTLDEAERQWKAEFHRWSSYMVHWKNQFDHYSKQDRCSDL

Compound | inhibition (Acetylcholinesterase [1]) | IC50 (Acetylcholinesterase [2])
CC(=O)OC(C)(C)/C=C/C(=O)[C@](C)(O)[C@H]1[C@H](O)C[C@@]2(C)[C@@H]3CC=C4[C@@H](C[C@H](O[C@@H]5O[C@H](CO)[C@@H](O)[C@H](O)[C@H]5O)C(=O)C4(C)C)[C@]3(C)C(=O)C[C@]12C | inactive | –
CC(=O)OC[C@H]1O[C@@H](OC2=C[C@@H]3C(=CC[C@@H]4[C@@]3(C)C(=O)C[C@]3(C)[C@@H]([C@@](C)(O)C(=O)/C=C/C(C)(C)OC(C)=O)[C@H](O)C[C@@]43C)C(C)(C)C2=O)[C@H](O)[C@@H](O)[C@@H]1O | inactive | –
CC(=O)OC(C)(C)/C=C/C(=O)[C@](C)(O)[C@H]1[C@H](O)C[C@@]2(C)[C@@H]3CC=C(C(C)(C)C(=O)O)/C(=C\C#N)[C@]3(C)C(=O)C[C@]12C | inactive | –
CC(=O)OC(C)(C)/C=C/C(=O)[C@](C)(O)[C@H]1[C@H](O)C[C@@]2(C)[C@@H]3CC=C(C(C)(C)C(=O)O)C4=CC(=O)O[C@](O)(C[C@]12C)[C@@]43C | – | 2600 nM
CC(=O)OC(C)(C)/C=C/C(=O)[C@](C)(O)[C@H]1[C@H](O)C[C@@]2(C)[C@@H]3CC=C4[C@@H](C[C@H](O)C(=O)C4(C)C)[C@]3(C)C(=O)C[C@]12C | inactive | –
COC(=O)C(C)(C)C1=CC[C@@H]2[C@@](C)(C(=O)C[C@]3(C)[C@@H]([C@@](C)(O)C(=O)/C=C/C(C)(C)OC(C)=O)[C@H](O)C[C@@]23C)/C1=C/C(=O)O | inactive | –
CC(=O)OC(C)(C)CCC(=O)[C@](C)(O)[C@H]1[C@H](O)C[C@@]2(C)[C@@H]3CC=C4[C@@H](C[C@H](O)C(=O)C4(C)C)[C@]3(C)C(=O)C[C@]12C | inactive | –
CC(=O)OC(C)(C)/C=C/C(=O)[C@](C)(O)[C@H]1[C@H](O)C[C@@]2(C)[C@@H]3[C@@H](O)C=C4[C@@H](C=C(O[C@@H]5O[C@H](CO)[C@@H](O)[C@H](O)[C@H]5O)C(=O)C4(C)C)[C@]3(C)C(=O)C[C@]12C | inactive | –
CC(=O)OC(C)(C)/C=C/C(=O)[C@](C)(O)[C@H]1[C@H](O)C[C@@]2(C)[C@@H]3CC=C(C(C)(C)C(=O)O)/C(=C\C(=O)O)[C@]3(C)C(=O)C[C@]12C | – | 3100 nM
CC(=O)OC(C)(C)CCC(=O)[C@](C)(O)[C@H]1[C@H](O)C[C@@]2(C)[C@@H]3CC=C4[C@@H](C[C@H](O[C@@H]5O[C@H](CO)[C@@H](O)[C@H](O)[C@H]5O)C(=O)C4(C)C)[C@]3(C)C(=O)C[C@]12C | inactive | –
CC(=O)OC(C)(C)/C=C/C(=O)[C@](C)(O)[C@H]1[C@H](O)C[C@@]2(C)[C@@H]3CC=C4[C@@H](C=C(O)C(=O)C4(C)C)[C@]3(C)C(=O)C[C@]12C | inactive | –

Source: ChEMBL document CHEMBL4196184, “Colocynthenins A-D, Ring-A seco-Cucurbitane Triterpenoids from the Fruits of Citrullus colocynthis” (J Nat Prod, 2018)
